Measurements taken from patent EP0318620A1, “Herbicidal sulfonamides” (E.I. DU PONT DE NEMOURS AND COMPANY, priority 1987, dated 1989).

Experiments:
[1] = tested on: barnyardgrass; assay: Test B pan test in Sassafras sandy loam soil, pre- and postemergence; assay type: in vivo, Echinochloa crusgalli; details: scale 0 to 100
Source text: (§1) Three round pans (25 cm diameter by 12.5 cm deep) were filled with Sassafras sandy loam soil. One pan was planted with nutsedge (Cyperus rotundus) tubers, crabgrass (Digitaria sanguinalis), sicklepod (Cassia obtusifolia), jimsonweed (Datura stramonium), velvetleaf (Abutilon theophrasti), lambsquarters (Chenopodim album), rice (Oryza sativa) and teaweed (Sida spinosa). The second pot was planted with green foxtail (Setaria viridis), cocklebur (Xantium pensyivanicum), morningglory (lpomoea hederacea), cotton (Gossypium hirsutum), johnsongrass (Sorghum halepense), barnyardgrass (Echinochloa crusgalli), corn (Zea mays), soybean (Glycine max) and giant foxtail (Setaria faberi). The third pot was planted with wheat (Triticum aestivum), barley (Hordeum vulgare), wild buckwheat (Polgonum convolvulus L.), cheatgrass (Bromus secalinus L.), sugarbeet (Beta vulgaris), wild oats (Avena fatua), viola (Viola arvensis), blackgrass (Alopecurus myosuroides), and rape (Brassica napus). The plants were grown for approximately fourteen days, then sprayed postemergence with the chemicals dissolved in a non-phytotoxic solvent.
(§2) Three round pans (25 cm diameter by 12.5 cm deep) were filled with Sassafras sandy loam soil. One pan was planted with nutsedge tubers, crabgrass, sicklepod, jimsonweed, velvetleaf, lambsquarters, rice and teaweed. The second pot was planted with green foxtail, cocklebur, morningglory, cottom, johnsongrass, . barnyardgrass, corn, soybean and giant foxtail. The third pot was planted with wheat, barley, wild buckwheat, cheatgrass, sugarbeet, wild oat, viola, blackgrass and rape. The three pans were sprayed preemer gence with the chemicals dissolved in a non-phytotoxic solvent.
(§3) Treated plants and controls were maintained in the greenhouse for 24 days, then all rated plants were compared to controls and visually rated for plant response.
(§4) A dash (-) response means no test.

[2] = tested on: cotton; assay: as above; assay type: in vivo, Gossypium hirsutum; details: scale 0 to 100
Source text: as §1, §2, §3, §4

[3] = tested on: soybean; assay: as above; assay type: in vivo, Glycine max; details: scale 0 to 100
Source text: as §1, §2, §3, §4

[4] = tested on: velvetleaf; assay: as above; assay type: in vivo, Abutilon theophrasti; details: scale 0 to 100
Source text: as §1, §2, §3, §4

[5] = tested on: wild buckwheat; assay: as above; assay type: in vivo, Polgonum convolvulus L.; details: scale 0 to 100
Source text: as §1, §2, §3, §4

[6] = tested on: purple nutsedge; assay: Test A greenhouse herbicide test, pre- and postemergence; assay type: in vivo, Cyperus rotundus; details: rated after sixteen days
Source text: (§5) Seeds of crabgrass (Digitaria spp.), barnyardgrass (Echinochloa crusgalli), cheatgrass (Bromus Secalinus), giant foxtail (Setaria faberii), wild oats (Avena fatua), velvetleaf (Abutilon theophrasti), morningglory (Ipomoea spp. , cocklebur (Xanthium pensylvanicum). sorghum, corn, barley, soybean, sugarbeet, cotton, rice, wheat and purple nutsedge (Cyperus rotundus) tubers were planted and treated preemergence with the test chemicals dissolved in a non-phytotoxic solvent. At the same time, these crop and weed species were treated with a soil/foliage application. At the time of treatment, the plants ranged in height from 2 to 18 cm. Treated plants and controls were maintained in a greenhouse for sixteen days, after which all species were compared to controls and visually rated for response to treatment. The ratings, summarized in Table A, are based on a numerical scale extending from 0 = no injury, to 10 = complete kill. The accompanying descriptive symbols have the following meanings: • B = burn; • C = chlorosis/necrosis; • D = defoliation; • E = emergence inhibition; • G = growth retardation; • H = formative effect; • U = unusual pigmentation; • X = axillary stimulation; • S = albinism; and • 6Y = abscised buds or flowers.

[7] = tested on: soybean; assay: as above; assay type: in vivo; details: rated after sixteen days
Source text: as §5

[8] = tested on: sugarbeet; assay: as above; assay type: in vivo; details: POSTEMERGENCE, rated after sixteen days
Source text: as §5

[9] = tested on: sorghum; assay: as above; assay type: in vivo; details: POSTEMERGENCE; RATE 0.05 KG/HA; rated after sixteen days
Source text: as §5

[10] = tested on: cotton; assay: as above; assay type: in vivo; details: rated after sixteen days
Source text: as §5

[11] = tested on: wild oats; assay: as above; assay type: in vivo, Avena fatua; details: PREEMERGENCE; RATE 0.01 KG/HA; rated after sixteen days
Source text: as §5

[12] = tested on: sugarbeet; assay: Test B pan test in Sassafras sandy loam soil, pre- and postemergence; assay type: in vivo, Beta vulgaris; details: scale 0 to 100
Source text: as §1, §2, §3, §4

[13] = tested on: morningglory; assay: as above; assay type: in vivo, lpomoea hederacea; details: scale 0 to 100
Source text: as §1, §2, §3, §4

[14] = tested on: johnsongrass; assay: as above; assay type: in vivo, Sorghum halepense; details: scale 0 to 100
Source text: as §1, §2, §3, §4

[15] = tested on: corn; assay: as above; assay type: in vivo, Zea mays; details: scale 0 to 100
Source text: as §1, §2, §3, §4

[16] = tested on: cocklebur; assay: Test A greenhouse herbicide test, pre- and postemergence; assay type: in vivo, Xanthium pensylvanicum; details: POSTEMERGENCE, rated after sixteen days
Source text: as §5

CCOC(=O)c1c(CC#N)cccc1S(=O)(=O)NC(=O)Nc1nc(OC)cc(OC)n1 [Compound 3, 2-(cyanomethyl)-6 [[(4,6-dimethoxypyrimidin-2-yl)-aminocarbonyl]aminosulfonyl]benzoic acid, ethyl ester]
BARNYARD GRASS response rating ([1]; POSTEMERGENCE, RATE 0001 G/HA): 70
BARNYARD GRASS response rating ([1]; POSTEMERGENCE, RATE 0004 G/HA): 100
BARNYARD GRASS response rating ([1]; POSTEMERGENCE, RATE 0016 G/HA): 100
BARNYARD GRASS response rating ([1]; POSTEMERGENCE, RATE 0062 G/HA): 100
BARNYARD GRASS response rating ([1]; PREEMERGENCE, RATE 0004 G/HA): 30
BARNYARD GRASS response rating ([1]; PREEMERGENCE, RATE 0016 G/HA): 50
BARNYARD GRASS response rating ([1]; PREEMERGENCE, RATE 0062 G/HA): 80
COTTON response rating ([2]; POSTEMERGENCE, RATE 0001 G/HA): 30
COTTON response rating ([2]; POSTEMERGENCE, RATE 0004 G/HA): 100
COTTON response rating ([2]; POSTEMERGENCE, RATE 0016 G/HA): 100
COTTON response rating ([2]; POSTEMERGENCE, RATE 0062 G/HA): 100
COTTON response rating ([2]; PREEMERGENCE, RATE 0004 G/HA): 0
COTTON response rating ([2]; PREEMERGENCE, RATE 0016 G/HA): 0
COTTON response rating ([2]; PREEMERGENCE, RATE 0062 G/HA): 30
SOYBEAN response rating ([3]; POSTEMERGENCE, RATE 0001 G/HA): 90
SOYBEAN response rating ([3]; POSTEMERGENCE, RATE 0004 G/HA): 100
SOYBEAN response rating ([3]; POSTEMERGENCE, RATE 0016 G/HA): 100
SOYBEAN response rating ([3]; POSTEMERGENCE, RATE 0062 G/HA): 100
SOYBEAN response rating ([3]; PREEMERGENCE, RATE 0004 G/HA): 0
SOYBEAN response rating ([3]; PREEMERGENCE, RATE 0016 G/HA): 20
SOYBEAN response rating ([3]; PREEMERGENCE, RATE 0062 G/HA): 40
VELVETLEAF response rating ([4]; POSTEMERGENCE, RATE 0001 G/HA): 70
VELVETLEAF response rating ([4]; POSTEMERGENCE, RATE 0004 G/HA): 100
VELVETLEAF response rating ([4]; POSTEMERGENCE, RATE 0016 G/HA): 100
VELVETLEAF response rating ([4]; POSTEMERGENCE, RATE 0062 G/HA): 100
VELVETLEAF response rating ([4]; PREEMERGENCE, RATE 0004 G/HA): 0
VELVETLEAF response rating ([4]; PREEMERGENCE, RATE 0016 G/HA): 30
VELVETLEAF response rating ([4]; PREEMERGENCE, RATE 0062 G/HA): 50
WILD BUCKWHEAT response rating ([5]; POSTEMERGENCE, RATE 0001 G/HA): 30
WILD BUCKWHEAT response rating ([5]; POSTEMERGENCE, RATE 0004 G/HA): 60
WILD BUCKWHEAT response rating ([5]; POSTEMERGENCE, RATE 0016 G/HA): 90
WILD BUCKWHEAT response rating ([5]; POSTEMERGENCE, RATE 0062 G/HA): 100
WILD BUCKWHEAT response rating ([5]; PREEMERGENCE, RATE 0004 G/HA): 50
WILD BUCKWHEAT response rating ([5]; PREEMERGENCE, RATE 0016 G/HA): 70
WILD BUCKWHEAT response rating ([5]; PREEMERGENCE, RATE 0062 G/HA): 90
NUTSEDGE visual rating of response to treatment ([6]; POSTEMERGENCE, RATE 0.01 KG/HA): 10C
NUTSEDGE visual rating of response to treatment ([6]; POSTEMERGENCE, RATE 0.05 KG/HA): 10C
NUTSEDGE visual rating of response to treatment ([6]; PREEMERGENCE, RATE 0.01 KG/HA): 4G
NUTSEDGE visual rating of response to treatment ([6]; PREEMERGENCE, RATE 0.05 KG/HA): 9G
SOYBEAN visual rating of response to treatment ([7]; POSTEMERGENCE, RATE 0.05 KG/HA): 9C
SOYBEAN visual rating of response to treatment ([7]; PREEMERGENCE, RATE 0.01 KG/HA): 5G
SUGAR BEETS visual rating of response to treatment ([8]; RATE 0.01 KG/HA): 10C
SUGAR BEETS visual rating of response to treatment ([8]; RATE 0.05 KG/HA): 10C
SORGHUM visual rating of response to treatment [9]: 9C
COTTON visual rating of response to treatment ([10]; POSTEMERGENCE, RATE 0.01 KG/HA): 9C
COTTON visual rating of response to treatment ([10]; POSTEMERGENCE, RATE 0.05 KG/HA): 10C
COTTON visual rating of response to treatment ([10]; PREEMERGENCE, RATE 0.01 KG/HA): 3G
WILD OATS visual rating of response to treatment [11]: 3G
SUGAR BEETS response rating ([12]; POSTEMERGENCE, RATE 0001 G/HA): 70
SUGAR BEETS response rating ([12]; POSTEMERGENCE, RATE 0004 G/HA): 100
SUGAR BEETS response rating ([12]; POSTEMERGENCE, RATE 0016 G/HA): 100
SUGAR BEETS response rating ([12]; POSTEMERGENCE, RATE 0062 G/HA): 100
SUGAR BEETS response rating ([12]; PREEMERGENCE, RATE 0004 G/HA): 50
SUGAR BEETS response rating ([12]; PREEMERGENCE, RATE 0016 G/HA): 70
SUGAR BEETS response rating ([12]; PREEMERGENCE, RATE 0062 G/HA): 90
MORNINGGLORY response rating ([13]; POSTEMERGENCE, RATE 0001 G/HA): 30
MORNINGGLORY response rating ([13]; POSTEMERGENCE, RATE 0004 G/HA): 50
MORNINGGLORY response rating ([13]; POSTEMERGENCE, RATE 0016 G/HA): 70
MORNINGGLORY response rating ([13]; POSTEMERGENCE, RATE 0062 G/HA): 90
MORNINGGLORY response rating ([13]; PREEMERGENCE, RATE 0004 G/HA): 0
MORNINGGLORY response rating ([13]; PREEMERGENCE, RATE 0016 G/HA): 0
MORNINGGLORY response rating ([13]; PREEMERGENCE, RATE 0062 G/HA): 30
JOHNSONGRASS response rating ([14]; POSTEMERGENCE, RATE 0001 G/HA): 30
JOHNSONGRASS response rating ([14]; POSTEMERGENCE, RATE 0004 G/HA): 60
JOHNSONGRASS response rating ([14]; POSTEMERGENCE, RATE 0016 G/HA): 100
JOHNSONGRASS response rating ([14]; POSTEMERGENCE, RATE 0062 G/HA): 100
JOHNSONGRASS response rating ([14]; PREEMERGENCE, RATE 0004 G/HA): 0
JOHNSONGRASS response rating ([14]; PREEMERGENCE, RATE 0016 G/HA): 30
JOHNSONGRASS response rating ([14]; PREEMERGENCE, RATE 0062 G/HA): 80
CORN response rating ([15]; POSTEMERGENCE, RATE 0001 G/HA): 90
CORN response rating ([15]; POSTEMERGENCE, RATE 0004 G/HA): 100
CORN response rating ([15]; POSTEMERGENCE, RATE 0016 G/HA): 100
CORN response rating ([15]; POSTEMERGENCE, RATE 0062 G/HA): 100
CORN response rating ([15]; PREEMERGENCE, RATE 0004 G/HA): 0
CORN response rating ([15]; PREEMERGENCE, RATE 0016 G/HA): 30
CORN response rating ([15]; PREEMERGENCE, RATE 0062 G/HA): 60
COCKLEBUR visual rating of response to treatment ([16]; RATE 0.01 KG/HA): 10C
COCKLEBUR visual rating of response to treatment ([16]; RATE 0.05 KG/HA): 10C
